These results are taken from US6239104A, “Isolation and structural elucidation of the cytostatic linear and cyclo-depsipeptides dolastatin 16, dolastatin 17, and dolastatin 18” (priority 1999, dated 2001).

Converted amounts (≈) assume the structure as drawn. Starred links: 1 amine or outer side, 2 acyl side, 3 side chain; linkers in the order of their positions; H or OH if unused. Non-standard residues stand in square brackets, D forms with d. Residues, ends and D or L forms follow the SMILES beside them. X1 = CC(Cc1ccccc1)C(N[*:1])C(=O)[*:2]; X2 = CC(C)C(N[*:1])C(C)C(=O)[*:2]; dNMeV = CN[C@@H](C(=O)O)C(C)C; dHiv = CC(C)[C@@H](O)C(=O)O; Lac = C[C@H](O)C(=O)O

Format in all cases: cell-based
In experiment [1] the test system is NCI-H460. In words: NCI human cancer cell line minipanel, lung NCI-H460.
Description: (§1) The administration of Dolastatin 16 is useful for treating neoplastic disease associated with malignant cell growth, and expectedly its synthetic counterpart, as well as, its pharmaceutically and physiologically active derivatives will be useful for treating neoplastic disease associated with malignant cell growth in animals and humans. For example, Dolastatin 16 was screened against a minipanel of the U.S. National Cancer Institute's human cancer cell lines utilizing protocols described by Michael R. Boyd and Kenneth D. Paul in Some Practical Considerations and Applications of the National Cancer Institute In Vitro Anticancer Drug Discovery Screen, 34 DRUG D[…] 91 (1995) (and references cited therein).
as §1, with “17” for “16”, “91 (1995) (and references cited therein).” left out

Experiment [2] deals with a selection of human cancer cell lines, including lung cancer. Description: NCI minipanel, selection of human cancer cell lines. Particulars: in words.
Description: as §1, with “18” for “16”

Experiment [3] has as its system five human leukemia cell lines. Description: NCI screen, five human leukemia cell lines. Particulars: in words.
Description: as §1

Experiment [4] deals with SF-295. Description: NCI human cancer cell line minipanel, brain SF-295.
Description: as §1
as §1, with “17” for “16”, “91 (1995) (and references cited therein).” left out

The test system of experiment [5] is complete panel of sixty human cancer cell lines. Description: NCI complete panel of sixty human cancer cell lines.
Description: as §1

The subject of experiment [6] is SK-MEL-5. Description: NCI human cancer cell line minipanel, melanoma SK-MEL-5.
Description: as §1

Experiment [7] deals with KM 20L2. Description: NCI human cancer cell line minipanel, colon KM 20L2.
Description: as §1
as §1, with “17” for “16”, “91 (1995) (and references cited therein).” left out

For `CCCC(=O)C(C)(C)C(=O)N[C@@H](CC(C)C)C(=O)N(C)[C@H](Cc1ccccc1)C(=O)N[C@@H](Cc1ccccc1)c1nccs1` [Dolastatin 18, Dhex--Leu--MePhe--Doe], the ED50 in experiment [1] (lung cancer NCI-H460) is 390 ng/mL (≈ 630 nM). In addition, the growth inhibition entry in experiment [2] is “significantly inhibit growth”.

Take `CC(C)C1NC(=O)[C@@H]2CCCN2C(=O)C(C(C)Cc2ccccc2)NC(=O)[C@@H]2CCCN2C(=O)[C@@H](C(C)C)N(C)C(=O)[C@@H](C(C)C)OC(=O)[C@@H]2CCCN2C(=O)[C@H](C)OC(=O)C1C` (some centres unmarked) [Dolastatin 16, cyclo-(Pro^1 --Dpv^2 --Pro^3 --Dml^4 --O--Lac^5 --Pro^6 --O--Hiv^7 --MeVal^8)] (cyclo([Lac]P[dHiv][dNMeV]P[X1]P[X2])): the growth inhibition result in experiment [3] is on record as “comparable inhibitory results”. Besides, the GI50 in experiment [4] was 5.2 ng/mL (≈ 5.92 nM); in experiment [1] (lung NCI-H460) it was 0.96 ng/mL (≈ 1.09 nM); in experiment [5] it was 250 nM; in experiment [6], 3.3 ng/mL (≈ 3.75 nM); in experiment [7] it was 1.2 ng/mL (≈ 1.37 nM).

In general, GI50 refers to the concentration that inhibits growth by half. Lower therefore signals more potent growth inhibition.
